Data on 1 compound can be found in patent US9957214B2, “Multifunctional radical quenchers” (ARIZONA BOARD OF REGENTS ON BEHALF OF ARIZONA STATE …, priority 2012, dated 2018).

This data set relates to differentiated SH-SY5Y cells. Description: Neuroprotection against Aβ 1-42 oligomer induced cytotoxicity (WST-1). The conditions noted are these: Aβ 1-42 oligomers 2.5 μM, 48 h. Format: cell-based, human. As for the experimental part: FIG. 8. Effect of nitrogen-containing 1,4-benzoquinone 40 and geldanamycin on Aβ 1-42 induced neurotoxicity in differentiated SH-SY5Y cells.
The cytotoxic effect of Aβ 1-42 oligomers (2.5 μM) on differentiated SH-SY5Y cells was evaluated in presence and absence of the test compounds. Sequential treatment of the human SH-SY5Y neuroblastoma cell line with retinoic acid and brain-derived neurotrophic factor (BDNF) generates nearly pure populations of human neuron-like cells, thus providing a model for the study of neuronal differentiation and neuroprotection as previously described, with some modifications (Encinas et al. (2000) J. Neurochem. 75, 991-1003). […] The plates were incubated at 37° C. in an atmosphere having 95% humidity and 5% CO2 for 48 h and then cell viability was measured using a WST-1 Kit (Roche Diagnostics). […] Color intensity was measured with a 96-well plate at 450 nm using a SpectraMax M5 microplate reader (Molecular Devices, Sunnyvale, Calif.). Results are expressed as percentage of viable cells relative to untreated control after subtracting background. Data are expressed as means±S.E.M. (n=3).
Synthetic human Aβ 1-42 was purchased from AnaSpec (San Jose, Calif.). […] Aβ 1-42 peptide content was determined by the method of bicinchoninic acid assay (micro-BCA kit, Pierce) using BSA as reference.

On to `COC1=C2CCCCCCCCCCCCCCCNC(=CC1=O)C2=O` [Compound 40], for which the “Effect on Aβ 1-42 induced cytotoxicity (in words)” value was “decreased Aβ 1-42 induced cytotoxicity in a concentration dependent manner”.
